Test results as given in PMC3356437 (Peptides, 2012).
≈ marks a conversion by molar mass, not a printed value. Where two headings read alike, the source gives them in different places. Where a SMILES comes first, the peptide text is derived from it.

Experiments:
E. coli = format: cell-based, Escherichia coli; settings: 50% saliva (45% in legend) in PBS, 2 hours, 35°C
[1] = tested on: P. gingivalis (53977, DPG3, W50); experiment: Bacterial killing assay; format: cell-based, Porphyromonas gingivalis; settings: three strains, 200 μg/ml peptide, 2 ½ hours, 35°C, CFU
P. gingivalis W50 = format: cell-based, Porphyromonas gingivalis
E. coli DHα5 = format: cell-based, Escherichia coli
P. aeruginosa PAO1 = format: cell-based, Pseudomonas aeruginosa
red blood cells [2] = settings: cited from earlier work
[3] = target: T1, LPS-binding protein (LBP) (Homo sapiens, UniProt P18428); experiment: LPS binding to LPS-binding protein; settings: LPS + 180–200 μg/ml GL13K; mean ± SEM, N=3
T1 sequence (P18428 26-481): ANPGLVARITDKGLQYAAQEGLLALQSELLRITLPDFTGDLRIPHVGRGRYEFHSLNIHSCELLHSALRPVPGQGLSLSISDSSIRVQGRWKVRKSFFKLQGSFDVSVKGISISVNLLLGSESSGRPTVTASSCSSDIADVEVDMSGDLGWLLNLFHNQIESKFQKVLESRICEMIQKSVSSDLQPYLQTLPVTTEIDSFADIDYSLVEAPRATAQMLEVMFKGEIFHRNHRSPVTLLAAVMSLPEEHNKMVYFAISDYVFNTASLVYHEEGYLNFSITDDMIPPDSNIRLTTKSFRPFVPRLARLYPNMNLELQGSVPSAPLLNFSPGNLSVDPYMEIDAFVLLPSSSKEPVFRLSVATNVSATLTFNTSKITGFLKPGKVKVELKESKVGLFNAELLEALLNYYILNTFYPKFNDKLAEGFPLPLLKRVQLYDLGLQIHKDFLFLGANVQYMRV

red blood cells [4] = tested on: red blood cells

Compound	Reduction of CFU / bactericidal activity in the presence of saliva (E. coli)	Bactericidal activity [1]	MIC (E. coli DHα5) [µg/mL]	MIC (P. aeruginosa PAO1) [µg/mL]	MIC (P. gingivalis W50; W50) [µg/mL]	MIC, 50% saliva (E. coli DHα5) [µg/mL]	other results
polymyxin B	retained bactericidal activity	ineffective	–	–	–	–	–
CC[C@H](C)[C@H](NC(=O)[C@H](CCCCN)NC(=O)[C@H](CCC(=O)O)NC(=O)[C@H](CCCCN)NC(=O)[C@H](CO)NC(=O)[C@H](CCCCN)NC(=O)[C@H](CCCNC(=N)N)NC(=O)[C@H](Cc1ccccc1)NC(=O)[C@H](Cc1ccccc1)NC(=O)[C@H](CC(=O)O)NC(=O)CNC(=O)[C@H](CC(C)C)NC(=O)[C@@H](N)CC(C)C)C(=O)NCC(=O)N[C@@H](CCCCN)C(=O)N[C@@H](CCC(=O)O)C(=O)N[C@@H](Cc1ccccc1)C(=O)N[C@@H](CCCCN)C(=O)N[C@@H](CCCNC(=N)N)C(=O)N[C@H](C(=O)N[C@H](C(=O)N[C@@H](CCC(N)=O)C(=O)N[C@@H](CCCNC(=N)N)C(=O)N[C@H](C(=O)N[C@@H](CCCCN)C(=O)N[C@@H](CC(=O)O)C(=O)N[C@@H](Cc1ccccc1)C(=O)N[C@@H](CC(C)C)C(=O)N[C@@H](CCCNC(=N)N)C(=O)N[C@@H](CC(N)=O)C(=O)N[C@@H](CC(C)C)C(=O)N[C@H](C(=O)N1CCC[C@H]1C(=O)N[C@@H](CCCNC(=N)N)C(=O)N[C@H](C(=O)N[C@@H](CCC(=O)O)C(=O)N[C@@H](CO)C(=O)O)[C@@H](C)O)C(C)C)[C@@H](C)CC)C(C)C)[C@@H](C)CC [LL-37]	less than 90%	killed	–	–	–	–	MIC (P. gingivalis W50; broth dilution in Pg broth, 10^4 CFU, OD 570 nm, seven independent experiments): 25 µg/mL (≈ 5.56 µM)
CC[C@H](C)[C@H](NC(=O)[C@H](CCC(N)=O)NC(=O)CN)C(=O)N[C@H](C(=O)N[C@@H](CC(N)=O)C(=O)N[C@@H](CC(C)C)C(=O)N[C@@H](CCCCN)C(=O)N[C@@H](C)C(=O)N[C@@H](CO)C(=O)N[C@@H](CC(C)C)C(=O)N[C@@H](CC(=O)O)C(=O)N[C@@H](CC(C)C)C(=O)N[C@@H](CC(C)C)C(N)=O)[C@@H](C)CC [GL13NH2] (H-GQIINLKASLDLL-NH2)	–	–	>200	>167	>167	–	Hemagglutination (caused, implied by contrast with GL13K) (red blood cells [2]): hemagglutination
CC[C@H](C)[C@H](NC(=O)[C@H](CCCCN)NC(=O)CN)C(=O)N[C@H](C(=O)N[C@@H](CCCCN)C(=O)N[C@@H](CC(C)C)C(=O)N[C@@H](CCCCN)C(=O)N[C@@H](C)C(=O)N[C@@H](CO)C(=O)N[C@@H](CC(C)C)C(=O)N[C@@H](CCCCN)C(=O)N[C@@H](CC(C)C)C(=O)N[C@@H](CC(C)C)C(N)=O)[C@@H](C)CC [GL13K] (H-GKIIKLKASLKLL-NH2)	–	–	5 (≈ 3.51 µM)	–	–	50 (≈ 35.1 µM)	LBP binding of LPS relative to LPS alone (100%) [3]: 45.3%±9.7% (N=3); Hemagglutination (red blood cells [4]): did not cause hemagglutination
CC[C@H](C)[C@H](NC(=O)[C@H](CCC(N)=O)NC(=O)CN)C(=O)N[C@H](C(=O)N[C@@H](CC(N)=O)C(=O)N[C@@H](CC(C)C)C(=O)N[C@@H](CCCCN)C(N)=O)[C@@H](C)CC [GK7NH2] (H-GQIINLK-NH2)	–	–	>200	>167	>167	>167	–
